The text below walks through data of BindingDB's records for patent US20240033370 (Bolt Biotherapeutics, 2024).

The experiment addresses T1, Toll-like receptor 7 (Homo sapiens, UniProt Q9NYK1).
T1 sequence (Q9NYK1 whole entry): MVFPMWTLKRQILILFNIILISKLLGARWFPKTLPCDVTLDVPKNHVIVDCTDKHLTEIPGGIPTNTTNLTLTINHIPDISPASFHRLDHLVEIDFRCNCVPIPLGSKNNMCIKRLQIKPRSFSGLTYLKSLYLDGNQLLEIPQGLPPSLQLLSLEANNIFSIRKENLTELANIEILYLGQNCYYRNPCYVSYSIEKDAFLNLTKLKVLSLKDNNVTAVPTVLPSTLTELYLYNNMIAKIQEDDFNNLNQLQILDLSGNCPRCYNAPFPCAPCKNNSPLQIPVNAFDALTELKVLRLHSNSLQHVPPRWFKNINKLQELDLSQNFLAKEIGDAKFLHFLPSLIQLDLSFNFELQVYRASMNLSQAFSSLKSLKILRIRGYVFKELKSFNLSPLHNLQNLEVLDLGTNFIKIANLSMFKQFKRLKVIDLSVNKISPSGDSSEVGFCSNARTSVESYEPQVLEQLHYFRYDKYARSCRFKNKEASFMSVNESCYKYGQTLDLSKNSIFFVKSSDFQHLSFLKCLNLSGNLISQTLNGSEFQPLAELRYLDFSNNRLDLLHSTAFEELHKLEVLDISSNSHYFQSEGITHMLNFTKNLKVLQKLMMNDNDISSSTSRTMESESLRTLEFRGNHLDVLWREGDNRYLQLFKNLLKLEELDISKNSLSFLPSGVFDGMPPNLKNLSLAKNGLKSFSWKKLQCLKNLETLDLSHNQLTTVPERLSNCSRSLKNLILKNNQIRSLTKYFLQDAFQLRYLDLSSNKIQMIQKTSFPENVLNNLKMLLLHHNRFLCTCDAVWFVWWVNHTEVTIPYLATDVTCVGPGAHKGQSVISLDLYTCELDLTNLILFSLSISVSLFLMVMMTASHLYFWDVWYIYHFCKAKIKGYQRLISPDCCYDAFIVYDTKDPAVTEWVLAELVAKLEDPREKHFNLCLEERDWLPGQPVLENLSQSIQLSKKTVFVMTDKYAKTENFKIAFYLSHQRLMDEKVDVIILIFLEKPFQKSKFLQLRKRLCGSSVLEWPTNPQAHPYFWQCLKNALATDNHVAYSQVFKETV
Briefly: HEK Reporter Assay. The method, then: HEK293 reporter cells expressing human TLR7 or human TLR8 were purchased from Invivogen and vendor protocols were followed for cellular propagation and experimentation. Briefly, cells were grown to 80-85% confluence at 5% CO2 in DMEM supplemented with 10% FBS, Zeocin, and Blasticidin. Cells were then seeded in 96-well flat plates at 4×10^4 cells/well with substrate containing HEK detection medium and immunostimulatory molecules. Activity was measured using a plate reader at 620-655 nm wavelength.
For orientation: Reporter assays use an easily measured gene product as a stand-in for the process of interest.

`CCCNC(=O)C1=Cc2ccc(-c3cnc(CN)nc3)cc2N=C(N)C1` [US20240033370, Hx No. CycBz-5] gave an EC50 of 35 nM.

What is called EC50 is the concentration needed to bring the measured effect to its halfway point.
